Measured values taken from patent publication US20150175599A1, “FAAH Inhibitors” (Ironwood Pharmaceuticals, Inc., priority 2010, published 2015).

biological target: T1, human FAAH-1 (Homo sapiens, UniProt O00519); experiment: Whole cell anandamide hydrolysis assay (HeLa clone 5c5 transfected with human FAAH-1); assay type: cell-based; settings: not given
T1 sequence (O00519 1-579): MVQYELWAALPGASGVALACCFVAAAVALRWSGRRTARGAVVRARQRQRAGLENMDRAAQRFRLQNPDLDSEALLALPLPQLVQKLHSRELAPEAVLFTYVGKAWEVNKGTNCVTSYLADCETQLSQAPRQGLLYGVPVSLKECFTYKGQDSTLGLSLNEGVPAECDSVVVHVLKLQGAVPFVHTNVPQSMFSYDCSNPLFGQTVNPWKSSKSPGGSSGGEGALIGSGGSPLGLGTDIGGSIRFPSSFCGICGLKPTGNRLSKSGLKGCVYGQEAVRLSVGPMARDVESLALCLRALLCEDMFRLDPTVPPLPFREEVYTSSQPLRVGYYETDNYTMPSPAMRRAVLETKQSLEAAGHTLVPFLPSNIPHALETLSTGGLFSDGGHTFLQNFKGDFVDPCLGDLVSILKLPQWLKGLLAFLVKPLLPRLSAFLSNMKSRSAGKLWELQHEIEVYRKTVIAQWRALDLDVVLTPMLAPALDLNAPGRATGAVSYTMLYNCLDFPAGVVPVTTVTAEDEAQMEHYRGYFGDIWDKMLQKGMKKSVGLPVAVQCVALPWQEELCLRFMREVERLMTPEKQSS
How it was run: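 Stable HeLa clone 5c5 expressing human FAAH-1, pre-incubated with compound 10 min at 37° C in DMEM/F12 with 15 mM HEPES pH 7.4 and 0.1% fatty-acid-free BSA. [3H]-anandamide (5 μM stock) added for 15 min; [3H]-ethanolamine separated on charcoal and counted. IC50 from curves constrained to 100% and 0%.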

Structure (SMILES) | IC50 [µM]
COc1cc(NC(=O)C(=O)c2c(C)n(Cc3ncc(F)cc3F)c3ccc(C)cc23)ccn1 [Compound 88, 2-(1-((3,5-difluoropyridin-2-yl)methyl)-2,5-dimethyl-1H-indol-3-yl)-N-(2-methoxypyridin-4-yl)-2-oxoacetamide] | < 0.1

same assay, conditions: HeLa clone 5c5 expressing human FAAH-1; read-out: human FAAH whole cell IC50

Structure (SMILES) | IC50 [µM]
COc1cc(NC(=O)C(=O)c2c(C)n(Cc3ccc(Cl)cn3)c3ncc(C)cc23)ccn1 [Compound 75, (1-((5-chloropyridin-2-yl)methyl)-2,5-dimethyl-1H-pyrrolo[2,3-b]pyridin-3-yl)-N-(2-methoxypyridin-4-yl)-2-oxoacetamide] | < 0.1
COc1cc(NC(=O)C(=O)c2c(C)n(Cc3ccc(Cl)cc3)c3ncc(C)cc23)ccn1 [Compound 76, 2-(1-(4-chlorobenzyl)-2,5-dimethyl-1H-pyrrolo[2,3-b]pyridin-3-yl)-N-(2-methoxypyridin-4-yl)-2-oxoacetamide] | < 0.1
COc1ccc2c(c1)c(C(=O)C(=O)Nc1ccnc(OC)c1)c(C)n2Cc1ccccn1 [Compound 77, 2-(5-methoxy-2-methyl-1-(pyridin-2-ylmethyl)-1H-indol-3-yl)-N-(2-methoxypyridin-4-yl)-2-oxoacetamide] | < 0.1
COc1cc(NC(=O)C(=O)c2c(C)n(Cc3ccc(Cl)cn3)c3cc(C)c(OC)cc23)ccn1 [Compound 95, 2-(1-((5-chloropyridin-2-yl)methyl)-5-methoxy-2,6-dimethyl-1H-indol-3-yl)-N-(2-methoxypyridin-4-yl)-2-oxoacetamide] | < 0.1
COc1ccc(Cn2c(C)c(C(=O)C(=O)Nc3ccnc(OC)c3)c3cc(OC)c(C)cc32)nc1 [Compound 96, 2-(5-methoxy-1-((5-methoxypyridin-2-yl)methyl)-2,6-dimethyl-1H-indol-3-yl)-N-(2-methoxypyridin-4-yl)-2-oxoacetamide] | < 0.1
COc1cc(NC(=O)C(=O)c2c(C)n(Cc3ncc(Cl)cc3F)c3cc(Cl)c(OC)cc23)ccn1 [Compound 97, 2-(6-chloro-1-((5-chloro-3-fluoropyridin-2-yl)methyl)-5-methoxy-2-methyl-1H-indol-3-yl)-N-(2-methoxypyridin-4-yl)-2-oxoacetamide] | < 0.1
COc1ccc(Cn2c(C)c(C(=O)C(=O)Nc3ccnc(OC)c3)c3cc(OC)c(Cl)cc32)nc1 [Compound 98, 2-(6-chloro-5-methoxy-1-((5-methoxypyridin-2-yl)methyl)-2-methyl-1H-indol-3-yl)-N-(2-methoxypyridin-4-yl)-2-oxoacetamide] | < 0.1
COc1cc(NC(=O)C(=O)c2c(C)n(Cc3ncc(Cl)cc3F)c3cc(F)c(OC)cc23)ccn1 [Compound 99, 2-(1-((5-chloro-3-fluoropyridin-2-yl)methyl)-6-fluoro-5-methoxy-2-methyl-1H-indol-3-yl)-N-(2-methoxypyridin-4-yl)-2-oxoacetamide] | < 0.1
COc1ccc2c(c1)c(C(=O)C(=O)Nc1ccnc(OC)c1)c(C)n2Cc1ncc(Cl)cc1OC [Compound 100, 2-(1-((5-chloro-3-methoxypyridin-2-yl)methyl)-5-methoxy-2-methyl-1H-indol-3-yl)-N-(2-methoxypyridin-4-yl)-2-oxoacetamide] | < 0.1
COc1cc(NC(=O)C(=O)c2c(C)n(Cc3ncc(F)cc3F)c3cc(F)c(OC)cc23)ccn1 [Compound 101, 2-(1-((3,5-difluoropyridin-2-yl)methyl)-6-fluoro-5-methoxy-2-methyl-1H-indol-3-yl)-N-(2-methoxypyridin-4-yl)-2-oxoacetamide] | < 0.1
